This is an account of results in article PMC12667295, “A surrogate barrier model for high-throughput blood-brain barrier permeability prediction: integrating LLC-PK1-MOCK/MDR1 Cells and lysosomal trapping correction” (Drug Delivery, 2025).

One data set can be described thus: in vitro. The settings on record: pig; for recovery at 2 h, 2 µM: pH 7.4.
The nature of data set [1]: Bidirectional transport across LLC-PK1 MOCK monolayer (Transwell).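 Note: compound quantified by LC-MS/MS in donor and receiver wells, efflux ratio as B-A over A-B Papp, recovery relative to initial donor amount.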 As to conditions: pig.
Procedure: Cells were passaged at 80−90% confluence (every 2−3 days) using trypsin-EDTA solution. […] The culture medium was replaced every other day, including 200 µL culture medium in the apical and 850 µL cell culture medium in the basolateral side. LLC-PK1 MOCK cells were used at passages of 3−30. LLC-PK1-MDR1 cells were cultured and passaged in the same manner as LLC-PK1 cells except at the density of 1 × 10^4 cells per well. LLC-PK1-MDR1 cells were used at passages of 3−25. For LLC-PK1 MOCK cells and LLC-PK1-MDR1 cells, the experiments were performed on the 4th and 7th day after seeding.
Samples were collected from the donor well at the start of the incubation (50 µL) as C0, and from the donor and receiver wells at the end of the incubation (50 µL). All samples were stored at - 40 °C for LC-MS/MS analysis.
Bidirectional transport experiments. […] The transwell experiments were conducted following above-mentioned procedure. […] When the recovery rate of the tested drug is below 80%, the possibility of intracellular accumulation should be considered. The polycarbonate (PC) membrane where cells are grown should be carefully peeled off from the cell culture medium and placed in 100 µL of HBSS buffer solution. […] The process was carried out on ice to prevent heat-induced degradation, applying a power in the range of 300 W for a total duration of 20 minutes. Thereafter, a quantitative analysis of the intracellular drug was conducted, and the drug recovery rate was recalculated based on this analysis.
The apparent permeability coefficient (Papp, cm/s) was calculated for each transport direction, A-B and B-A, using the following equation: Papp=dQ/dt×1/A×C0 where dQ/dt is the permeation rate (µmol/s), A is the surface area of the insert (0.33 cm^2, Corning), and C0 is the initial donor concentration (µM).
The efflux ratio (ER) is calculated as the ratio of Papp (B-A)/Papp (A-B). Recovery=TRcumrf+Cdf×VD/Cdi×VD×100% Where TRcumrf is the cumulative transported mass in the receiver chamber at the end of the incubation (nmol), Cdf is the concentration of the drug in the donor chamber at the end of the incubation (μM), VD is the volume of the donor chamber (mL), and Cdi is the initial concentration of the drug in the donor chamber (μM).
The method of the bidirectional transport experiment was the same as before.
The conditions of data set [2]: cited from earlier work.
The test system of data set [3] is P-gp (human MDR1). Kind of data set: in vitro. The settings on record: pig.
Data set [4] deals with P-gp (human MDR1). Nature of the data set: Bidirectional transport across LLC-PK1-MDR1 monolayer stably expressing human MDR1 (P-gp) (Transwell).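 Note: 2 h incubation at 37 °C, receiver HBSS with 10 mM Hepes plus 1% BSA, LC-MS/MS of donor and receiver, recovery as receiver plus donor amount over initial donor amount.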 The settings on record: pig, LLC-PK1, pH 7.4.
The mark [5] stands for this setting: LLC-PK1 MOCK cell monolayer (Transwell).
Where [6] appears, read: LLC-PK1, pH 7.4, Papp A-B, LLC-PK1 MOCK, 2 µM, 2 h, mean ± s, n = 3, BLQ = below 2 nM.

Read-outs that look alike come from different tables or passages of the source.

The term Papp B→A denotes how fast a substance crosses the layer from the basolateral side. The efflux ratio is a quotient of directional permeabilities that is used to spot active efflux. By Papp A→B is commonly meant how fast a substance crosses the layer from the apical side. A high value points to ready permeation.

With `CN(C)CCOC(c1ccccc1)c1ccccc1` [Diphenhydramine], in the data set “in vitro” (setting [5]), the recovery at 2 h, 2 µM came out at 101 ± 7.46%.
Consider `CC(C)NCC(O)COc1cccc2ccccc12` (stereo not shown) [Propranolol], for which, in data set [1] (LLC-PK1, pH 7.4), the Papp B→A at 2 h, 2 µM was determined as 20.1 ± 0.71 ×10⁻⁶ cm/s and the efflux ratio at 2 h, 2 µM was determined as 0.88. The Papp A→B at 2 h, 2 µM in data set [1] (setting [6]) came to 22.8 ± 2.13 ×10⁻⁶ cm/s. In data set [2] (ref Fridén [2009]), the “Kp, Brain” value is on record as 16.37 and the “Kp,uu,Brian” value is given as 0.61. This compound also returned a recovery at 2 h, 2 µM in the data set with P-gp (human MDR1) [3] (LLC-PK1, pH 7.4) of 80.7 ± 1.03%. In the data set with P-gp (human MDR1) [4], the Papp A→B at 2 h, 2 µM worked out at 16.8 ± 0.09 ×10⁻⁶ cm/s; the Papp B→A at 2 h, 2 µM worked out at 16.1 ± 1.46 ×10⁻⁶ cm/s; the efflux ratio at 2 h, 2 µM amounted to 0.96. The recovery at 2 h, 2 µM in “in vitro” (setting [5]) was 90.9 ± 7.14%.
The compound `CCC1(c2cnc[nH]2)Cc2ccccc2C1` [Atipamezole] came in with a Papp B→A at 2 h, 2 µM in data set [1] (LLC-PK1, pH 7.4) of 30.2 ± 4.52 ×10⁻⁶ cm/s. The Papp A→B at 2 h, 2 µM in data set [1] (setting [6]) was determined as 33.9 ± 1.72 ×10⁻⁶ cm/s. For the same compound, in data set [2] (ref Li [2019]), the “Kp, Brain” value was 4.40 and the “Kp,uu,Brian” value was 1.700. Also, in the data set with P-gp (human MDR1) [4], the Papp A→B at 2 h, 2 µM came to 33.7 ± 5.21 ×10⁻⁶ cm/s and the apparent permeability from basolateral to apical (Papp B→A) at 2 h, 2 µM is 27.6 ± 1.5 ×10⁻⁶ cm/s.
For `COc1cccc(C2(O)CCCCC2CN(C)C)c1` (stereo not shown) [Tramadol], in data set [1] (LLC-PK1, pH 7.4), the Papp A→B at 2 h, 2 µM was 27.3 ± 0.2 ×10⁻⁶ cm/s; the Papp B→A at 2 h, 2 µM worked out at 23.3 ± 1.43 ×10⁻⁶ cm/s; the efflux ratio at 2 h, 2 µM stood at 0.85. Also, in data set [2] (ref Fridén [2009]), the “Kp, Brain” value was 5.29 and the “Kp,uu,Brian” value was 1.46. The compound also gave a recovery at 2 h, 2 µM in the data set with P-gp (human MDR1) [3] (LLC-PK1, pH 7.4) of 109 ± 2.73%. In addition, in the data set with P-gp (human MDR1) [4], the Papp A→B at 2 h, 2 µM came to 26.3 ± 1.05 ×10⁻⁶ cm/s; the Papp B→A at 2 h, 2 µM was 25.2 ± 1.1 ×10⁻⁶ cm/s; the efflux ratio at 2 h, 2 µM is 0.96. This compound gave a recovery at 2 h, 2 µM in the data set “in vitro” of 113 ± 3.59%.
In the case of `CC(NC(C)(C)C)C(=O)c1cccc(Cl)c1` (stereo not shown) [Bupropion], the apparent permeability from basolateral to apical (Papp B→A) at 2 h, 2 µM in data set [1] (LLC-PK1, pH 7.4) was 23.8 ± 0.67 ×10⁻⁶ cm/s. The compound also returned a Papp A→B at 2 h, 2 µM in data set [1] (setting [6]) of 27.3 ± 2.88 ×10⁻⁶ cm/s. In data set [2] (ref Fridén [2009]), the “Kp, Brain” value is on record as 9.78 and the “Kp,uu,Brian” value is listed as 2.000. In the data set with P-gp (human MDR1) [4], the Papp A→B at 2 h, 2 µM was determined as 26.6 ± 2.58 ×10⁻⁶ cm/s and the Papp B→A at 2 h, 2 µM came out at 19.5 ± 1 ×10⁻⁶ cm/s.
As for `C=C[C@H]1C[N@@]2CC[C@H]1C[C@@H]2[C@@H](O)c1ccnc2ccc(OC)cc12` [Quinidine], the Papp B→A at 2 h, 2 µM is 17.2 ± 2.85 ×10⁻⁶ cm/s in data set [1] (LLC-PK1, pH 7.4) and 42.9 ± 2.11 ×10⁻⁶ cm/s with P-gp (human MDR1) [4]. Moreover, the Papp A→B at 2 h, 2 µM in data set [1] (setting [6]) was 23.4 ± 0.37 ×10⁻⁶ cm/s; in the data set with P-gp (human MDR1) [4] it was 2.48 ± 1.06 ×10⁻⁶ cm/s. The “Kp, Brain” value in data set [2] (ref Nicolaï [2020]) was 0.32. In data set [2] (ref Nicolaï [2020]), the “Kp,uu,Brian” value is 0.036. For the same compound, the recovery at 2 h, 2 µM in the data set on P-gp (human MDR1) [3] (LLC-PK1, pH 7.4) was determined as 98.7 ± 14.8%; in the data set “in vitro” (setting [5]), 99.1 ± 15.6%.
With `Nc1c2c(nc3ccccc13)CCCC2` [Tacrine], in data set [2] (rat, in vivo), the “Kp, Brain” value was 9.56. Also, the “Kp,uu,Brian” value in data set [2] (rat, in vivo) was 0.78. Besides, the Papp B→A at 2 h, 2 µM was 34.1 ± 2.16 ×10⁻⁶ cm/s with P-gp (human MDR1) [3] (LLC-PK1, pH 7.4) and 27.2 ± 2.27 ×10⁻⁶ cm/s in “in vitro” (LLC-PK1, pH 7.4). Moreover, the recovery at 2 h, 2 µM in the data set with P-gp (human MDR1) [3] (LLC-PK1, pH 7.4) was 105 ± 4.23%; in “in vitro”, 114 ± 3.02%. Besides, the Papp A→B at 2 h, 2 µM came out at 23.6 ± 1.1 ×10⁻⁶ cm/s in the data set on P-gp (human MDR1) [3] (LLC-PK1, pH 7.4, Papp A-B) and 30.9 ± 1.76 ×10⁻⁶ cm/s in the data set “in vitro” (LLC-PK1, pH 7.4, Papp A-B).
Regarding `Nc1nnc(-c2cccc(Cl)c2Cl)c(N)n1` [Lamotrigine], in data set [2] (ref Fridén [2009]), the “Kp, Brain” value was 2.02 and the “Kp,uu,Brian” value was 0.880.
Consider `COc1ccc2c(c1)c(CC(=O)O)c(C)n2C(=O)c1ccc(Cl)cc1` [Indomethacin], for which, in data set [1] (LLC-PK1, pH 7.4), the Papp B→A at 2 h, 2 µM stood at 18.9 ± 0.31 ×10⁻⁶ cm/s and the efflux ratio at 2 h, 2 µM came out at 1.18. In data set [1] (setting [6]), this compound returned a Papp A→B at 2 h, 2 µM of 16.1 ± 2.07 ×10⁻⁶ cm/s. For the same compound, in data set [2] (ref Fridén [2009]), the “Kp, Brain” value is recorded as 0.01 and the “Kp,uu,Brian” value is listed as 0.11. For the same compound, the recovery at 2 h, 2 µM with P-gp (human MDR1) [3] (LLC-PK1, pH 7.4) came to 99.7 ± 4.24%. In the data set with P-gp (human MDR1) [4], the Papp A→B at 2 h, 2 µM is 14.9 ± 1.29 ×10⁻⁶ cm/s; the Papp B→A at 2 h, 2 µM amounted to 20.3 ± 2.74 ×10⁻⁶ cm/s; the efflux ratio at 2 h, 2 µM was 1.36. Moreover, in the data set “in vitro” (setting [5]), the recovery at 2 h, 2 µM stood at 109 ± 5.97%.
